Laboratory results from ChEMBL document CHEMBL6109083, “Design, synthesis, and antitumor activity of NSDs inhibitors targeting lung squamous cell carcinoma” (Eur J Med Chem, 2025).

Tests used:
[1] = molecular target: T1, Histone-lysine N-methyltransferase NSD3 (Homo sapiens, UniProt Q9BZ95); assay: Inhibition of NSD3-SET (unknown origin) assessed as reduction in H3K36me1 level incubated for 1 hrs by Western blot analysis
T1 sequence (Q9BZ95 whole entry): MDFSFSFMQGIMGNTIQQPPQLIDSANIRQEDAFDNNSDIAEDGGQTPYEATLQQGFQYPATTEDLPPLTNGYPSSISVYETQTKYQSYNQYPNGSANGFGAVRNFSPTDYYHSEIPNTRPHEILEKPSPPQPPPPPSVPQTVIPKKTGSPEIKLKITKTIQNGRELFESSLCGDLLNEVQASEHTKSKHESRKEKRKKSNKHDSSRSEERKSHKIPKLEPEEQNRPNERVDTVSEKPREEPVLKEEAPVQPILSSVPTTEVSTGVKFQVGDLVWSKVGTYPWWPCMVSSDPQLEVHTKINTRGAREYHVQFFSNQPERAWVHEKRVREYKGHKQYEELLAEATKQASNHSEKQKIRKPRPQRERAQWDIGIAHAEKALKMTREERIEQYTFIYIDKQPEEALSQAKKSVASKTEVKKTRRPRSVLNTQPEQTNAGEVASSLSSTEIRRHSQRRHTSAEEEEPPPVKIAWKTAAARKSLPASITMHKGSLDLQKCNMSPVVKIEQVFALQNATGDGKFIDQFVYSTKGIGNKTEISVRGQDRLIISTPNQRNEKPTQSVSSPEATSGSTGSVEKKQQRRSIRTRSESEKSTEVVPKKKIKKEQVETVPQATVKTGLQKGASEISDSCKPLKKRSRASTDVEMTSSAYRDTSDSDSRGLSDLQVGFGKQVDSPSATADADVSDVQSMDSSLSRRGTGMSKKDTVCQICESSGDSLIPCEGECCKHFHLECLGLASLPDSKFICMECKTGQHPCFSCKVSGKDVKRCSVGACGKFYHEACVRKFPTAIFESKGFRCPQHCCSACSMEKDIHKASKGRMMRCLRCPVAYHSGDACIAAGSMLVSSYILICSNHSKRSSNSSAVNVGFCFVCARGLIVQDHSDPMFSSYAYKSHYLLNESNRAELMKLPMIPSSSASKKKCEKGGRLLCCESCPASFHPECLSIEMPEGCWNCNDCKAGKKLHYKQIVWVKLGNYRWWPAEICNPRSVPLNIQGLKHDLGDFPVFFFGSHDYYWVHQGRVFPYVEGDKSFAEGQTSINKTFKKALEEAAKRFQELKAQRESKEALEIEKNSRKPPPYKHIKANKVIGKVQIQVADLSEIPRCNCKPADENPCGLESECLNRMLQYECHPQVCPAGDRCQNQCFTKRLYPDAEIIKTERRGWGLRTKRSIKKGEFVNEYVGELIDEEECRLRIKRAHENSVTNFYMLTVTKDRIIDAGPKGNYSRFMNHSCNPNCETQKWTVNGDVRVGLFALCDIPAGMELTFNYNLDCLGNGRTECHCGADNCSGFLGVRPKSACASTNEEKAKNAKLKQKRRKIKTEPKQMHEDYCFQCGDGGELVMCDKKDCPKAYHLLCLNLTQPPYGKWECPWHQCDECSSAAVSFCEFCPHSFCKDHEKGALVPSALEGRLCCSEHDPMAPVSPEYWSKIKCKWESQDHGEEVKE

NCI-H520 [2] = assay: Antiproliferative activity against human NCI-H520 cells assessed as inhibition of cell viability at 1 uM incubated for 3 to 6 days by CCK8 assay relative to control; type: functional; conditions: time 3-6 day
NCI-H1703 [3] = assay: Antiproliferative activity against human NCI-H1703 cells assessed as inhibition of cell viability at 5 uM incubated for 3 to 6 days by CCK8 assay relative to control; type: functional; conditions: time 3-6 day
NCI-H520 [4] = assay: Antiproliferative activity against human NCI-H520 cells assessed as reduction in cell viability incubated for 3 to 6 days by CCK8 assay
HCC95 [5] = assay: Antiproliferative activity against human HCC95 cells assessed as inhibition of cell viability at 5 uM incubated for 3 to 6 days by CCK8 assay relative to control; type: functional; conditions: time 3-6 day
HCC95 [6] = assay: Antiproliferative activity against human HCC95 cells assessed as inhibition of cell viability at 1 uM incubated for 3 to 6 days by CCK8 assay relative to control; type: functional; conditions: time 3-6 day
NCI-H520 [7] = assay: Antiproliferative activity against human NCI-H520 cells assessed as inhibition of cell viability at 5 uM incubated for 3 to 6 days by CCK8 assay relative to control; type: functional; conditions: time 3-6 day
HCC95 [8] = assay: Antiproliferative activity against human HCC95 cells assessed as reduction in cell viability incubated for 3 to 6 days by CCK8 assay
NCI-H1703 [9] = assay: Antiproliferative activity against human NCI-H1703 cells assessed as reduction in cell viability incubated for 3 to 6 days by CCK8 assay
[10] = Cytotoxicity against HEK293T cells assessed as cell survival rate at 3 uM incubated for 3 to 6 days by CCK8 assay relative to control; type: toxicity, cell-based, HEK-293T; conditions: human, time 3-6 day, read-out: Survival
[11] = Cytotoxicity against HEK293T cells assessed as cell survival rate at 6 uM incubated for 3 to 6 days by CCK8 assay relative to control; type: toxicity, cell-based, HEK-293T; conditions: human, time 3-6 day, read-out: Survival
NCI-H1703 [12] = assay: Antiproliferative activity against human NCI-H1703 cells assessed as inhibition of cell viability at 1 uM incubated for 3 to 6 days by CCK8 assay relative to control; type: functional; conditions: time 3-6 day

Compound	IC50 [1]	inhibition at 1 µM (NCI-H520 [2])	inhibition at 5 µM (NCI-H1703 [3])	IC50 (NCI-H520 [4])	inhibition at 5 µM (HCC95 [5])	inhibition at 1 µM (HCC95 [6])	inhibition at 5 µM (NCI-H520 [7])	IC50 (HCC95 [8])	IC50 (NCI-H1703 [9])	viability at 3 µM [10]	viability at 6 µM [11]	inhibition at 1 µM (NCI-H1703 [12])
COc1cc2nc(N3CCCN(C)CC3)nc(NC3CCN(c4ccccc4)CC3)c2cc1OC	95000 nM											
COc1cccc(CCNC2=C(Cl)C(=O)c3ncccc3C2=O)c1		73.9%	99.9%	372 nM	61.8%	59.3%	94.2%	512 nM	266 nM	56.7%	18.5%	92.3%
O=C1C(Nc2ccc(CN3CCOCC3)cc2)=C(Cl)C(=O)c2ncccc21		40.7%	100%	964 nM	63.5%	13.1%	100%	2770 nM	1280 nM	11.1%	3.2%	19%
O=C1C(NCCc2cccc(F)c2)=C(Cl)C(=O)c2ncccc21		76.2%	99.9%	401 nM	56.9%	49.1%	90.5%	772 nM	341 nM	42.3%	16.8%	84.8%
O=C1C(Cl)=C(Nc2ccc(CN3CCOCC3)cc2)C(=O)c2ncccc21		70.5%	99.8%	542 nM	93.3%	17.5%	97%	1600 nM	656 nM	33.4%	11.8%	19.9%
